Data on 19 molecules can be found in patent US10633382B2, “Imidazopyrazinones, pyrazolopyrimidinones and pyrazolopyridinones as PDE1 inhibitors” (H. Lundbeck A/S, priority 2016, dated 2020).

Type in all cases: biochemical
In one experiment the target is PDE1B (Homo sapiens, UniProt Q01064). The experiment can be described thus: PDE1 inhibition assay (PDE1B). Conditions: 15 nM tritium labelled cAMP, SPA. How it is done:
(§1) PDE1A, PDE1B and PDE1C assays were performed as follows: the assays were performed in 60 μL samples containing a fixed amount of the PDE1 enzyme (sufficient to convert 20-25% of the cyclic nucleotide substrate), a buffer (50 mM HEPES (4-(2-hydroxyethyl)-1-piperazineethanesulfonic acid) pH 7.6; 10 mM MgCl2; 0.02% Tween20), 0.1 mg/ml BSA (bovine serum albumin), 15 nM tritium labelled cAMP and varying amounts of inhibitors. Reactions were initiated by addition of the cyclic nucleotide substrate, and reactions were allowed to proceed for 1 hr at room temperature before being terminated through mixing with 20 μL (0.2 mg) yttrium silicate SPA beads (PerkinElmer). The beads were allowed to settle for 1 hour in the dark before the plates were counted in a Wallac 1450 Microbeta counter. The measured signals were converted to activity relative to an uninhibited control (100%) and IC50 values were calculated using XlFit (model 205, IDBS).

In another experiment the target is PDE1C (Homo sapiens, UniProt Q14123). The experiment can be described thus: PDE1 inhibition assay (PDE1C). The settings on record: 15 nM tritium labelled cAMP, SPA. Here is the method: as §1
Another experiment addresses PDE9 (Homo sapiens, UniProt O76083). The experiment can be described thus: PDE9 inhibition assay. The settings on record: for inhibition at 10 µM / PDE9 Inhibition at 10 μM (%): 10 μM of inhibitor. How it is done: A PDE9 assay may for example, be performed as follows: The assay is performed in 60 μL samples containing a fixed amount of the relevant PDE enzyme (sufficient to convert 20-25% of the cyclic nucleotide substrate), a buffer (50 mM HEPES pH 7.6; 10 mM MgCl2; 0.02% Tween20), 0.1 mg/ml BSA, 225 pCi of ^3H-labelled cyclic nucleotide substrate, tritium labeled cAMP to a final concentration of 5 nM and varying amounts of inhibitors. Reactions are initiated by addition of the cyclic nucleotide substrate, and reactions are allowed to proceed for one hr at room temperature before being terminated through mixing with 15 μL 8 mg/mL yttrium silicate SPA beads (Amersham). The beads are allowed to settle for one hr in the dark before the plates are counted in a Wallac 1450 Microbeta counter. The measured signal can be converted to activity relative to an uninhibited control (100%) and IC50 values can be calculated using the Xlfit extension to EXCEL.
In the context of the present invention the assay was performed in 60 μL assay buffer (50 mM HEPES pH 7.6; 10 mM MgCl2; 0.02% Tween20) containing enough PDE9 to convert 20-25% of 10 nM ^3H-cAMP, and […] 10 μM of inhibitor. Following 1 hr incubation the reactions were terminated by addition of 15 μL 8 mg/mL yttrium silicate SPA beads (Amersham). The beads were allowed to settle for one hr in the dark before the plates were counted in a Wallac 1450 Microbeta counter.

The target of a further experiment is PDE1A (Homo sapiens, UniProt P54750). The experiment can be described thus: PDE1 inhibition assay (PDE1A). Conditions: 15 nM tritium labelled cAMP, SPA. How it is done: as §1

What is called IC50 is the point on the concentration scale where inhibition reaches its midpoint. High values mean lower potency, low ones higher potency. In general, inhibition refers to the drop in the measured response relative to a control, in per cent.

Sequence of PDE1C (Q14123 whole entry): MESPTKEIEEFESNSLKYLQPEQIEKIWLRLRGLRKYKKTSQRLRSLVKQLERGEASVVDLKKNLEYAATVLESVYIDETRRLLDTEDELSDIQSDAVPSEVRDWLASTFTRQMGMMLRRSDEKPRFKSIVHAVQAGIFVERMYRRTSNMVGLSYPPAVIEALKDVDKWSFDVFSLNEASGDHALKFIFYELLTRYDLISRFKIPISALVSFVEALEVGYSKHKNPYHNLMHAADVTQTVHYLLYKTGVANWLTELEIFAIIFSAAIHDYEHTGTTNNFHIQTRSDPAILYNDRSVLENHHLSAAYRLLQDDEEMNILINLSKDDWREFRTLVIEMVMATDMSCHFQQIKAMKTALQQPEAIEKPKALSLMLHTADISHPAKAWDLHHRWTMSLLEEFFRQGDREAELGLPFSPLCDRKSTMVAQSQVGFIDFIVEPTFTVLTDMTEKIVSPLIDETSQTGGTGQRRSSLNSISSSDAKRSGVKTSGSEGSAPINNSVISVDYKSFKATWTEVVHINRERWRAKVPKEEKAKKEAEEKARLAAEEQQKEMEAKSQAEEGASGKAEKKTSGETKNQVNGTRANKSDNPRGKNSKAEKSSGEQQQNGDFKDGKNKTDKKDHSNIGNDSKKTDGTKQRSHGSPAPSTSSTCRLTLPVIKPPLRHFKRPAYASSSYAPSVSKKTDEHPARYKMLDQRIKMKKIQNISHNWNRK
Sequence of PDE9 (O76083 whole entry): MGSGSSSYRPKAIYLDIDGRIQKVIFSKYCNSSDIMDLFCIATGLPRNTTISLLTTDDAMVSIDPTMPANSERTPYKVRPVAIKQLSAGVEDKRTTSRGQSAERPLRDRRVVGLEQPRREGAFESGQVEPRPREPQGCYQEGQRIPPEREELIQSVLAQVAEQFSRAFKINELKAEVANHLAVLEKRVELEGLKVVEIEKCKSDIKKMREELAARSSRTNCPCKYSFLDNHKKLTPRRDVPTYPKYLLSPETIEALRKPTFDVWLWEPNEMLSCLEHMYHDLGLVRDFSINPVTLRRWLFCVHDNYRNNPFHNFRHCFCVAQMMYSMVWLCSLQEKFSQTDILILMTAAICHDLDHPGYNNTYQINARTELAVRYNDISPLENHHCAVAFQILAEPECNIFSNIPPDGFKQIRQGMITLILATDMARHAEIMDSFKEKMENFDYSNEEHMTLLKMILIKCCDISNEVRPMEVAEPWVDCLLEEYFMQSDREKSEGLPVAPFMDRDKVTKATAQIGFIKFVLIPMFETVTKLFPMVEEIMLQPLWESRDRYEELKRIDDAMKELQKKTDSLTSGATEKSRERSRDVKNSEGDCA
Sequence of PDE1B (Q01064 whole entry): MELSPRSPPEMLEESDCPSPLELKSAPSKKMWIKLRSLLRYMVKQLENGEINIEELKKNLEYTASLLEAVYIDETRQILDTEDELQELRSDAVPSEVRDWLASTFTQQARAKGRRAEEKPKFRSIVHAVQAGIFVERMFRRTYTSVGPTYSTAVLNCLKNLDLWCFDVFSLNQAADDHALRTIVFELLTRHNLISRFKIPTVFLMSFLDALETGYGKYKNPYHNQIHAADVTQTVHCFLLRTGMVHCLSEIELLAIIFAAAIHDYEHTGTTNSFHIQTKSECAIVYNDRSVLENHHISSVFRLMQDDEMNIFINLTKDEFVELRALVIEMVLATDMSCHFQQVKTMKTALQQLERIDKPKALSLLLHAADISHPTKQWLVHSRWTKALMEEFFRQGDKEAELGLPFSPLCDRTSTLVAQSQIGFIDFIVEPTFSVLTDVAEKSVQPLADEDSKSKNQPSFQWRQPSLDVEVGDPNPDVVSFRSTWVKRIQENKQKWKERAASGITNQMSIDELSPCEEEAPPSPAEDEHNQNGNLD
Sequence of PDE1A (P54750 whole entry): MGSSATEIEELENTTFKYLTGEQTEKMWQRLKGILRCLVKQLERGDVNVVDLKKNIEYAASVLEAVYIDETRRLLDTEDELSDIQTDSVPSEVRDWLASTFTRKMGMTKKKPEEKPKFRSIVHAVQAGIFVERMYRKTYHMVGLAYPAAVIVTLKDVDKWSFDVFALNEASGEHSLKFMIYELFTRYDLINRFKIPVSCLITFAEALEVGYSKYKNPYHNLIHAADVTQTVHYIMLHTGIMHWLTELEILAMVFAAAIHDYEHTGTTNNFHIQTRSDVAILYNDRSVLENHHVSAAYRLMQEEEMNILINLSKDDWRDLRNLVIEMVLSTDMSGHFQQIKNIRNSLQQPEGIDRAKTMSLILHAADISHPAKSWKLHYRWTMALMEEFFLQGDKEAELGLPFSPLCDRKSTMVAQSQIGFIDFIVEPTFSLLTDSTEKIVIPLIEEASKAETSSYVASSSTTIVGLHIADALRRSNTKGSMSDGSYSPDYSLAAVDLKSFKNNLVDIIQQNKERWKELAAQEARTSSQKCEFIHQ

Consider `Cn1c(Cc2ccc(-c3cccc(F)n3)cc2)cn2c(C3CCOC3)ncc2c1=O` (single isomer, unassigned; isomer 1) [Example 27, 6-(4-(6-fluoropyridin-2-yl)benzyl)-7-methyl-3-(tetrahydrofuran-3-yl)imidazo[1,5-a]pyrazin-8(7H)-one, Isomer 1], for which the half-maximal inhibitory concentration (IC50) against PDE1B worked out at 16 nM; against PDE1C, 96 nM; against PDE1A it was 57 nM. Further, the inhibition at 10 µM on PDE9 was 4%.

`CC1OCCC1c1ncc2c(=O)n(C)c(Cc3ccc(-c4cccc(F)n4)cc3)cn12` (single isomer, unassigned; isomer 1) [Example 29, 6-(4-(6-fluoropyridin-2-yl)benzyl)-7-methyl-3-(2-methyltetrahydrofuran-3-yl)imidazo[1,5-a]pyrazin-8(7H)-one, Isomer 1]: the IC50 on PDE1B was 24 nM; at PDE1C, 104 nM; at PDE1A, 61 nM. Moreover, the “PDE9 Inhibition at 10 μM (%)” value at PDE9 came to 4%.

On to `Cn1c(Cc2ccc(-c3cccc(F)n3)cc2)cn2c(C3CCOC3)ncc2c1=O` (single isomer, unassigned; isomer 2) [Example 28, 6-(4-(6-fluoropyridin-2-yl)benzyl)-7-methyl-3-(tetrahydrofuran-3-yl)imidazo[1,5-a]pyrazin-8(7H)-one, Isomer 2], for which the IC50 was determined as 26 nM at PDE1B, 111 nM against PDE1C and 71 nM on PDE1A. Also, the “PDE9 Inhibition at 10 μM (%)” value on PDE9 is listed as 6%.

Consider `CC1OCCC1c1ncc2c(=O)n(C)c(Cc3ccc(-c4cccc(F)n4)cc3)cn12` (single isomer, unassigned; isomer 2) [Example 30, 6-(4-(6-fluoropyridin-2-yl)benzyl)-7-methyl-3-(2-methyltetrahydrofuran-3-yl)imidazo[1,5-a]pyrazin-8(7H)-one, Isomer 2], for which the results for the IC50 on PDE1B, against PDE1C and against PDE1A were 71 nM, 148 nM and 70 nM, respectively. In addition, at PDE9, the “PDE9 Inhibition at 10 μM (%)” value was −2%.

Consider `CC1OCCC1c1ncc2c(=O)n(C)c(Cc3ccc(-c4cccc(F)n4)cc3)cn12` (single isomer, unassigned; isomer 3) [Example 31, 6-(4-(6-fluoropyridin-2-yl)benzyl)-7-methyl-3-(2-methyltetrahydrofuran-3-yl)imidazo[1,5-a]pyrazin-8(7H)-one, Isomer 3], for which the figures for the IC50 on PDE1B, against PDE1C and against PDE1A were 4 nM, 45 nM and 18 nM, respectively. In addition, the “PDE9 Inhibition at 10 μM (%)” value on PDE9 is recorded as 10%.

`CC1OCCC1c1ncc2c(=O)n(C)c(Cc3ccc(-c4cccc(F)n4)cc3)cn12` (single isomer, unassigned; isomer 4) [Example 32, 6-(4-(6-fluoropyridin-2-yl)benzyl)-7-methyl-3-(2-methyltetrahydrofuran-3-yl)imidazo[1,5-a]pyrazin-8(7H)-one, Isomer 4]: the results for the IC50 against PDE1B, against PDE1C and against PDE1A were 1.3 nM, 9.2 nM and 5.8 nM, respectively. Moreover, the “PDE9 Inhibition at 10 μM (%)” value at PDE9 is recorded as 5%.

Turning to `Cc1cccc(-c2ccc(Cc3cc4c(cnn4C4CCOCC4)c(=O)n3C)cc2)n1` [Example 1, 5-methyl-6-[[4-(6-methyl-2-pyridyl)phenyl]methyl]-1-tetrahydropyran-4-yl-pyrazolo[4,3-c]pyridin-4-one], the half-maximal inhibitory concentration (IC50) at PDE1B was determined as 32 nM; against PDE1C, 220 nM; at PDE1A it was 150 nM. Also, the inhibition at 10 µM against PDE9 was 10%.

`Cn1c(Cc2ccc(-c3ccccn3)cc2)nc2c(cnn2C2CCOCC2)c1=O` [Example 2, 5-methyl-6-[[4-(2-pyridyl)phenyl]methyl]-1-tetrahydropyran-4-yl-pyrazolo[3,4-d]pyrimidin-4-one]: the concentration for half-maximal inhibition (IC50) at PDE1B worked out at 92 nM; at PDE1C, 530 nM; at PDE1A it was 390 nM. Also, the inhibition at 10 µM on PDE9 is 5%.

For the molecule `Cc1cccc(-c2ccc(Cc3nc4c(cnn4C4CCOCC4)c(=O)n3C)cc2)n1` [Example 3, 5-methyl-6-[[4-(6-methyl-2-pyridyl)phenyl]methyl]-1-tetrahydropyran-4-yl-pyrazolo[3,4-d]pyrimidin-4-one], the IC50 stood at 93 nM against PDE1B, 660 nM against PDE1C and 350 nM against PDE1A. At PDE9, the inhibition at 10 µM amounted to 25%.

Consider `Cn1c(Cc2ccc(-c3cccc(F)n3)cc2)nc2c(cnn2C2CCOCC2)c1=O` [Example 4, 6-[[4-(6-fluoro-2-pyridyl)phenyl]methyl]-5-methyl-1-tetrahydropyran-4-yl-pyrazolo[3,4-d]pyrimidin-4-one], for which the IC50 against PDE1B came out at 57 nM; on PDE1C it was 2100 nM; against PDE1A it was 180 nM. In addition, the inhibition at 10 µM against PDE9 is 17%.

For `Cn1c(Cc2ccc(-c3cccc(F)n3)cc2)cc2c(cnn2C2CCOCC2)c1=O` [Example 5, 6-[[4-(6-fluoro-2-pyridyl)phenyl]methyl]-5-methyl-1-tetrahydropyran-4-yl-pyrazolo[4,3-c]pyridin-4-one], the IC50 against PDE1B turned out to be 20 nM; against PDE1C it was 190 nM; against PDE1A, 120 nM. Further, the inhibition at 10 µM against PDE9 was found to be 3%.

As for `Cn1c(Cc2ccc(-c3ccccn3)cc2)cc2c(cnn2C2CCOCC2)c1=O` [Example 6, 5-methyl-6-[[4-(2-pyridyl)phenyl]methyl]-1-tetrahydropyran-4-yl-pyrazolo[4,3-c]pyridin-4-one], the IC50 on PDE1B came to 25 nM; against PDE1C, 240 nM; against PDE1A, 160 nM. In addition, the inhibition at 10 µM at PDE9 came out at 4%.

As for `COc1ccc(Cn2c(CN3CCN(c4ccccn4)CC3)cn3c(C4CCOCC4)ncc3c2=O)cc1` [Example 7, 7-[(4-methoxyphenyl)methyl]-6-[[4-(2-pyridyl)piperazin-1-yl]methyl]-3-tetrahydropyran-4-yl-imidazo[1,5-a]pyrazin-8-one], the IC50 is 13 nM at PDE1B, 190 nM against PDE1C and 88 nM against PDE1A. The inhibition at 10 µM at PDE9 came out at 19%.

For `COc1ccc(Cn2c(CN3CCN(c4ccccc4)CC3)cn3c(C4CCOCC4)ncc3c2=O)cc1` [Example 8, 7-[(4-methoxyphenyl)methyl]-6-[(4-phenylpiperazin-1-yl)methyl]-3-tetrahydropyran-4-yl-imidazo[1,5-a]pyrazin-8-one], the figures for the half-maximal inhibitory concentration (IC50) against PDE1B, against PDE1C and against PDE1A were 9.8 nM, 140 nM and 59 nM, respectively. In addition, at PDE9, the inhibition at 10 µM was 11%.

As for `COc1ccc(Cn2c(Cc3ccc(-c4ccccn4)cc3)cn3c(C4CCOCC4)ncc3c2=O)cc1` [Example 9, 7-[(4-methoxyphenyl)methyl]-6-[[4-(2-pyridyl)phenyl]methyl]-3-tetrahydropyran-4-yl-imidazo[1,5-a]pyrazin-8-one], the concentration for half-maximal inhibition (IC50) was determined as 0.19 nM on PDE1B, 0.38 nM on PDE1C and 0.29 nM at PDE1A. On PDE9, the inhibition at 10 µM was 39%.

Regarding `O=c1[nH]c(Cc2ccc(-c3ccccn3)cc2)cn2c(C3CCOCC3)ncc12` [Example 10, 6-[[4-(2-pyridyl)phenyl]methyl]-3-tetrahydropyran-4-yl-7H-imidazo[1,5-a]pyrazin-8-one], the IC50 stood at 6 nM against PDE1B, 22 nM against PDE1C, 180 nM on PDE9 (printed in the PDE9 inhibition column) and 17 nM against PDE1A.

With `Cn1c(Cc2ccc(-c3ccccn3)cc2)cn2c(C3CCOCC3)ncc2c1=O` [Example 11, 7-methyl-6-[[4-(2-pyridyl)phenyl]methyl]-3-tetrahydropyran-4-yl-imidazo[1,5-a]pyrazin-8-one], the half-inhibitory concentration (IC50) on PDE1B was determined as 3.5 nM; against PDE1C it was 120 nM; against PDE1A, 30 nM. The inhibition at 10 µM at PDE9 is -10%.

Take `CCn1c(Cc2ccc(-c3ccccn3)cc2)cn2c(C3CCOCC3)ncc2c1=O` [Example 12, 7-ethyl-6-[[4-(2-pyridyl)phenyl]methyl]-3-tetrahydropyran-4-yl-imidazo[1,5-a]pyrazin-8-one]: the figures for the IC50 against PDE1B, on PDE1C and at PDE1A were 3.1 nM, 26 nM and 12 nM, respectively. For the same molecule, on PDE9, the inhibition at 10 µM stood at 4%.

Regarding `Cc1cccc(-c2ccc(Cc3cn4c(C5CCOCC5)ncc4c(=O)n3C)cc2)n1` [Example 13, 7-methyl-6-[[4-(6-methyl-2-pyridyl)phenyl]methyl]-3-tetrahydropyran-4-yl-imidazo[1,5-a]pyrazin-8-one], the IC50 turned out to be 14 nM at PDE1B, 80 nM at PDE1C and 81 nM at PDE1A. Also, the inhibition at 10 µM on PDE9 amounted to 18%.
